# Entries after “also recorded” stand apart in the source; their conditions may differ.
# What was measured:
# TSC1/TSC2 = experiment: GAP assay: TSC1/TSC2-promoted hydrolysis of GTP bound to recombinant GST-Rheb; type: biochemical; settings: FLAG-TSC1, FLAG-TSC2, [α-32P]GTP, n=3
# Text: FIGS. 1A-1B: Recombinant GST-Rheb proteins were subjected to GAP assay in the presence of FLAG-TSC1, FLAG-TSC2 and [α-^32P] GTP. GST-Rheb bound to GDP or GTP was pulled down using glutathione beads and the nucleotides were then separated by thin-layer chromatography and visualized by phosphorimager. The positions of GDP and GTP are shown (FIG. 1A). […] FIGS. 1C-1D: CHO cells were co-transfected using Lipofectamine 3000 with vectors encoding wildtype (WT) Rheb or the indicated mutants and TSC1/2 as indicated. 36 h after transfection, cells were transferred to Ham's F12 media lacking FBS for 16 h. Cells were the transferred to Dulbecco's phosphate-buffered saline (D-PBS, which lacks amino acids) for 1 h before cell lysates were harvested for SDS-PAGE and Western Blotting analysis using the indicated antibodies. […] This effect is consistent with lack of sensitivity of the mutant Rhebs to TSC1/TSC2. Thus the Rheb mutants S21L, T23M, G29S, Y35N and E40K promote mTORC1 signalling in the absence of upstream activation due to insensitivity to the GAP activity of the TSC complex.
# A) Recombinant GST-Rheb proteins were subjected to GTPase assays in the presence of FLAG-TSC1, FLAG-TSC2 and [α-^32P]GTP. Nucleotide-bound GST-Rheb was purified from the reaction mixture using 20 μl glutathione bead slurry. Radioactive GDP and GTP were separated by thin-layer chromatography and visualized by phosphorimager.
# CHO cells = experiment: Growth of transfected CHO cells in medium with 10%, 1%, 0.5% or 0% FBS (cell counts over 7 days); type: cell-based
# Experimental: CHO cells were seeded into 24-well plates at 5,000 cells/well. […] 24 h after transfection, cells were transferred to medium containing 10%, 1%, 0.5% or 0% FBS as indicated. Every 24 h for 7 days, cells were trypsinized (from different dishes on each occasion) and counted on a haemocytometer. Growth medium was changed every 2 days.
# CHO cells were seeded into 24-well plates at 5,000 cells/well. […] 24 h after transfection, cells were transferred to media (Ham's F12 from Life Technologies, Cat. No. 11765054) containing 10%, 1%, 0.5% or 0% foetal bovine serum, as indicated. Cells were trypsinized and counted on a haemocytometer every 24 h for 7 days. Growth medium was changed every 2 days.
# mTORC1 signalling = mTORC1 signalling (Western blot, S6K1 and rpS6) in transfected CHO cells starved of serum and amino acids, with or without TSC1/2 co-transfection; type: cell-based
# Experimental: GTP. GST-Rheb bound to GDP or GTP was pulled down using glutathione beads and the nucleotides were then separated by thin-layer chromatography and visualized by phosphorimager. The positions of GDP and GTP are shown (FIG. 1A). […] FIGS. 1C-1D: CHO cells were co-transfected using Lipofectamine 3000 with vectors encoding wildtype (WT) Rheb or the indicated mutants and TSC1/2 as indicated. 36 h after transfection, cells were transferred to Ham's F12 media lacking FBS for 16 h. Cells were the transferred to Dulbecco's phosphate-buffered saline (D-PBS, which lacks amino acids) for 1 h before cell lysates were harvested for SDS-PAGE and Western Blotting analysis using the indicated antibodies.
# [1] = system: mTORC1 localisation at the lysosome; experiment: Immunofluorescence of mTOR and LAMP1 colocalisation in serum-starved transfected CHO cells; type: cell-based; settings: medium lacking FBS for 16 h
# Experimental: (§1) 24 h after transfection cells were transferred to medium lacking FBS for 16 hours. Cells were fixed with 4% paraformaldehyde, permeabilized with 0.05% Triton X-100, blocked with 10% normal donkey serum before LAMP1 and then anti-mTOR antibodies were applied overnight. Alexa Fluor™ 488 and 594-labelled secondary antibodies were applied before cells were mounted and stained with DAPI.
# as §1, with “h.” for “hours.”, “mTOR” for “then anti-mTOR”, “594” for “594-labelled”
# [2] = system: CHO cells stably expressing Firefly luciferase (FLuc); experiment: Firefly luciferase assay in CHO cells stably expressing FLuc transfected with Rheb vectors; type: cell-based; settings: day 7, normalised to cell number
# Experimental: CHO cells stably expressing Firefly luciferase (FLuc) or Gaussia luciferase (GLuc) as indicated were transfected using Lipofectamine3000 with an empty vector (EV) or vectors for Rheb WT, S21L, T23M, G29S, Y35N or E40K and also treated with the mTOR inhibitor AZD8055 at 100 nM for the total duration where indicated. Fluc and GLuc assays were performed 24 h after transfection and then every 48 h for 7 days. Assay results are normalised to cell number. GLuc-CHO cells were harvested for SDS-PAGE and Western Blot analysis at the 168 h (7-day) time-point to probe for intracellular GLuc, FLAG (Rheb) and actin, as ‘loading control’. […] In (E), secreted GLuc was monitored every 4 h from 24 h to 60 h showing the rate of secretion of GLuc was higher when Rheb-T23M is expressed as compared to Rheb-Y35N. The pattern for intracellular levels of Gaussia luciferase (assessed by immunoblot of cell lysates harvested at 7 days post transfection) more closely resemble those intracellular firefly luciferase (F) with little change compared to either the empty vector or WT while still retaining heightened mTORC1 signalling as indicated by the elevated levels of P-S6K1 Thr389 compared to cells transfected with the empty vector. […]
substance,measurement,setting,value
"Rheb-T23M: human Rheb protein with a methionine variant at residue 23 (T23M), SEQ ID NO. 3",hydrolysis of GTP bound to Rheb promoted by TSC1/TSC2,TSC1/TSC2,completely unable to promote hydrolysis of GTP; also recorded: did not promote hydrolysis of GTP
same,cell growth in serum-free medium,CHO cells; 0% FBS,allows CHO cells to grow efficiently in serum-free medium
same,cell growth in 0.5% FBS,CHO cells; 0.5% FBS,significant growth advantage over the other Rheb mutants; also recorded: substantially greater proliferation
same,cell growth in medium with 10% and 1% FBS,CHO cells; 10% or 1% FBS,no effect on cell growth
same,mTORC1 signalling in the absence of upstream activation,"mTORC1 signalling; no serum 16 h, D-PBS 1 h, compared to empty vector and Rheb-WT",increased mTORC1 signalling over both the empty vector and Rheb-WT
same,mTORC1 signalling when co-transfected with TSC1/TSC2,"mTORC1 signalling; no serum and amino acids, co-transfected with TSC1/TSC2",no reduction
same,mTOR localisation to the lysosome (overlap with LAMP1),[1],promote localisation; also recorded: strong mTOR localisation on lysosomes
same,increase in synthesis of intracellular Firefly luciferase compared to the empty vector,[2],ca. 1.2 fold

# Source: patent US12492232B2, “Methods for producing proteins” (South Australian Health and Medical Research Institute …, priority 2018, dated 2025)
